# Laboratory results from patent publication US10934303B2, “Aryl ethene derivative and pharmaceutical composition containing same as active ingredient” (priority 2016, dated 2021).
# Where two headings read alike, the source gives them in different places.
# Columns and labels:
# ERRγ = format: cell-based
# in vitro = in vitro ADME; design: Papp at 5 h: dose or concentration left out as unconfirmed; details: PBS pH 7.4, 25° C.; for Permeability Pampa: 5 hours
# [1] = 1 μM, 30 minutes, 37° C., NADPH
# [2] = 1 μM, 30 minutes, 37° C., NADPH; remark: listed apart in the source
# [3] = 1 μM, 30 minutes, 37° C., NADPH; remark: listed apart in the source
# [4] = 1 μM, 30 minutes, 37° C., NADPH; remark: listed apart in the source
# CYP1A2 = CYP1A2 (Homo sapiens (Human), UniProt P05177); assay: Cytochrome P450 activity inhibition, CYP1A2; format: in vitro ADME; details: 10 μM, human liver microsomes, Phenacetin substrate
# CYP1A2, sequence (P05177 whole entry): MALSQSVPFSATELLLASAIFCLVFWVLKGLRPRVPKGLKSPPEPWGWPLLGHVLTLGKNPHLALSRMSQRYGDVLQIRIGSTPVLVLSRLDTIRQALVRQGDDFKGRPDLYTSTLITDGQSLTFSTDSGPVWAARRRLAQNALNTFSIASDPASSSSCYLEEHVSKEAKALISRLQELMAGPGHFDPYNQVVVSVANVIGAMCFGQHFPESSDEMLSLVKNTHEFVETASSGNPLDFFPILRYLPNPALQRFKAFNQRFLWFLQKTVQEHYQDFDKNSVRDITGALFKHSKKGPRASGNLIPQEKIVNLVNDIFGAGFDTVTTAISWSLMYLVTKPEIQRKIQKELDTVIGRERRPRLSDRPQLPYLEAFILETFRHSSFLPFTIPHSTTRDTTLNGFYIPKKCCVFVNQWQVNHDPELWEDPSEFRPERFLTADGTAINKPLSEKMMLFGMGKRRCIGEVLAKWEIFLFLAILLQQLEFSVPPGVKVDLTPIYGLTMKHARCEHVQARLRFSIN
# From the text: (§1) 1) Cytochrome P450 (CYP450) Activity Inhibition Evaluation
# CYP2C9 = CYP2C9 (Homo sapiens (Human), UniProt P11712); assay: Cytochrome P450 activity inhibition, CYP2C9; format: in vitro ADME; details: 10 μM, human liver microsomes, Diclofenac substrate
# CYP2C9, sequence (P11712 whole entry): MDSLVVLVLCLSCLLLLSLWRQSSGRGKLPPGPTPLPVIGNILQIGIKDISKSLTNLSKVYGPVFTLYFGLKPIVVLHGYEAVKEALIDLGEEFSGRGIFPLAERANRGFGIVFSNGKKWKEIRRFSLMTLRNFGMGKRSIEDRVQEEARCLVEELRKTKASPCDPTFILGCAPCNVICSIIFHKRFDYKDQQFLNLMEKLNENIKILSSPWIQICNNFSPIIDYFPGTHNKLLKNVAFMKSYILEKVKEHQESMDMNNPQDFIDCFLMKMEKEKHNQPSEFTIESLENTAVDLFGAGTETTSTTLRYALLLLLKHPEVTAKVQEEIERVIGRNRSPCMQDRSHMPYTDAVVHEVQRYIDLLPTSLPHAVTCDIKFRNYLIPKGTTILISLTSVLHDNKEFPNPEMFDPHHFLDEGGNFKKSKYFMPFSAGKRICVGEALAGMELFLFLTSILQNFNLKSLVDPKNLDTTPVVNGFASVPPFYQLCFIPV
# From the text: as §1
# CYP2C19 = CYP2C19 (Homo sapiens (Human), UniProt P33261); assay: Cytochrome P450 activity inhibition, CYP2C19; format: in vitro ADME; details: 10 μM, human liver microsomes, S-mephenytoin substrate
# CYP2C19, sequence (P33261 whole entry): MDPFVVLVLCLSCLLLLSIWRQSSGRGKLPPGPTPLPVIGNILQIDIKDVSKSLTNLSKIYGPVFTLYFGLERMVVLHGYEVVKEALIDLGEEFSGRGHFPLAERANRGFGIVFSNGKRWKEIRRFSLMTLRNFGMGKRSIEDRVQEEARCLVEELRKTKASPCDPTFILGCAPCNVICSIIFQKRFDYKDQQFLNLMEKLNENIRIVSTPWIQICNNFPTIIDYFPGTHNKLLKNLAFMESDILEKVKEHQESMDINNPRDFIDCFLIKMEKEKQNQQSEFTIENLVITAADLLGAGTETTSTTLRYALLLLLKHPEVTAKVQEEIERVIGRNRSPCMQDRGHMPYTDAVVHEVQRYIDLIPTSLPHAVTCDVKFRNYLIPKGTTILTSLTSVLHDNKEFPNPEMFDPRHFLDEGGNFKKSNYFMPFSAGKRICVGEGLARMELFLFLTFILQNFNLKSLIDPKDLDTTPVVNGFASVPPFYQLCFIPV
# From the text: as §1
# CYP2D6 = CYP2D6 (Homo sapiens (Human), UniProt P10635); assay: Cytochrome P450 activity inhibition, CYP2D6; format: in vitro ADME; details: 10 μM, human liver microsomes, Dextromethorphan substrate
# CYP2D6, sequence (P10635 whole entry): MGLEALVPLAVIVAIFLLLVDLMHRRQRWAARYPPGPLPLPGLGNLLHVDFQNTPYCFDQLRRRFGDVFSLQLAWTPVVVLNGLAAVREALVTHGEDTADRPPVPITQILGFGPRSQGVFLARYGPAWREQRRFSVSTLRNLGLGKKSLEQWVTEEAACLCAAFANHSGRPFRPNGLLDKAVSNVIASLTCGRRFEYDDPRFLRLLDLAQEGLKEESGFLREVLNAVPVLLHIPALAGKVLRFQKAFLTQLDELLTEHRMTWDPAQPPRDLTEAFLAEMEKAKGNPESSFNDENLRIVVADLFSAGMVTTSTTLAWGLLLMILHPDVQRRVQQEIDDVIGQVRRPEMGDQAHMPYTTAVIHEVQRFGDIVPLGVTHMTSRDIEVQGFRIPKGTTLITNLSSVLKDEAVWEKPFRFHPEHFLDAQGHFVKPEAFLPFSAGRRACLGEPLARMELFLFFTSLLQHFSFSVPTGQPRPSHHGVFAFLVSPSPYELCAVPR
# From the text: as §1
# CYP3A4 = CYP3A4 (Homo sapiens (Human), UniProt P08684); assay: Cytochrome P450 activity inhibition, CYP3A4; format: in vitro ADME; details: 10 μM, human liver microsomes, Midazolam substrate
# CYP3A4, sequence (P08684 whole entry): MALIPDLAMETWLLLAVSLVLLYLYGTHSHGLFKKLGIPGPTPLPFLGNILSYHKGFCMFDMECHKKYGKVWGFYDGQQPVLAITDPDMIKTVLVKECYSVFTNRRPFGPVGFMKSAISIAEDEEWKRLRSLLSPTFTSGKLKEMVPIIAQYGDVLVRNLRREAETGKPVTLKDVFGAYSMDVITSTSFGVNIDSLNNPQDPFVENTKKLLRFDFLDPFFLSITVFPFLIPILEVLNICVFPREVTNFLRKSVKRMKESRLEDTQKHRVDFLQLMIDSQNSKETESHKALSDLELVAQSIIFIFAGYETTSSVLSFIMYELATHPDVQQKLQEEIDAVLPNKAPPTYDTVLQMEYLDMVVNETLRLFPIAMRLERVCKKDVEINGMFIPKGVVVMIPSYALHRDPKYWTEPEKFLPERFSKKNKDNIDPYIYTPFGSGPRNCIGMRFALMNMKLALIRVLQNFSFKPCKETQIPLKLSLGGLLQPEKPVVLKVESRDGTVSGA
# From the text: as §1
# in vivo = format: in vivo; details: rat; for Cmax: read-out: Cmax
# [5] = activity relative to reference compound GSK5182, 10 μM
SMILES,Permeability Pampa (in vitro),MS(Microsomal Stability) (%) human [1] [%],MS(Microsomal Stability) (%) dog [2] [%],MS(Microsomal Stability) (%) rat [3] [%],MS(Microsomal Stability) (%) mouse [4] [%],CYP inhibition (% of control) 1A2 (CYP1A2),CYP inhibition (% of control) 2C9 (CYP2C9),CYP inhibition (% of control) 2C19 (CYP2C19),CYP inhibition (% of control) 2D6 (CYP2D6),CYP inhibition (% of control) 3A4 (CYP3A4),further results
CC(C)N1CCN(c2ccc(/C(=C(/CCCO)c3ccccc3)c3cccc(O)c3)cc2)CC1 [Compound 18k],1.29 10^−6 cm/s,65.4,61.2,54.9,26.9,–,–,–,–,–,"Functional Assay at 10 μM (% of control), Cpds (ERRγ; 10 μM, 24 hours, AD293): 1.08 % of control; Functional Assay, Cpds/Ref 5182 (ERRγ; [5]): 1.14"
CC(C)N1CCC(c2ccc(/C(=C(/CCCO)c3ccccc3)c3cccc(O)c3)cc2)C1 (racemic) [Compound 22u],–,40.0,10.0,44.3,17.2,–,–,–,–,–,–
Cc1ccc(/C(=C(\CCCO)c2ccccc2)c2ccc(C3CCN(C)CC3)cc2)cc1 [Compound 22f],3.96 10^−6 cm/s,97.0,78.1,80.0,66.3,–,–,–,–,–,–
CCN1CCC(c2ccc(C(=C(CCCO)c3ccccc3)c3cccc(O)c3)cc2)CC1 [Compound 22ae],–,48.4,33.7,32.2,21.5,59.4 % of control,>100 % of control,>100 % of control,68.4 % of control,81.5 % of control,–
"Cl.Cl.OCCC/C(=C(\c1ccc(O)cc1)c1ccc(OCCN2CCNCC2)cc1)c1ccccc1 [Compound 7a, (Z)-4-(5-hydroxy-2-phenyl-1-(4-(2-(piperazin-1-yl)ethoxy)phenyl)pent-1-en-1-yl)phenol 2hydrochloride salt]",–,49.0,64.7,59.5,32.1,–,–,–,–,–,"Functional Assay at 10 μM (% of control), Cpds (ERRγ): 2.71 % of control; Functional Assay, Cpds/Ref 5182 (ERRγ): 0.86"
CC(=O)Nc1ccc(/C(=C(\CCCOC(C)=O)c2ccccc2)c2ccc(C3CCN(C4CC4)CC3)cc2)cc1 [Compound 27d],0.34 10^−6 cm/s,63.7,43.8,67.6,17.6,–,–,–,–,–,–
CC(=O)Nc1ccc(/C(=C(\CCCO)c2ccccc2)c2ccc(C3CCN(C4CC4)CC3)cc2)cc1 [Compound 27c],0.68 10^−6 cm/s,83.5,81.2,79.4,42.1,–,–,–,–,–,–
Cc1ccc(/C(=C(\CCCO)c2ccccc2)c2ccc(C3CN(C(C)C)C3)cc2)cc1 [Compound 22e],6.16 10^−6 cm/s,–,–,–,–,94.9 % of control,61.3 % of control,58.4 % of control,71.8 % of control,58.2 % of control,–
OCCC/C(=C(\c1ccc(O)cc1)c1ccc(C2CCN(C3CC3)CC2)cc1)c1ccccc1 [Compound 22i],0.35 10^−6 cm/s,36.0,91.5,92.6,83.6,–,–,–,–,–,"AUCINF (in vivo; IV, 1 mg/kg): 0.54 μMh; AUCall (in vivo; IV, 1 mg/kg): 0.49 μMh; Vss (in vivo; IV, 1 mg/kg): 11.7 L/kg; t1/2 (in vivo; IV, 1 mg/kg): 3.0 h; AUCINF (in vivo; PO, 10 mg/kg): 4.52 μMh; AUCall (in vivo; PO, 10 mg/kg): 2.24 μMh; BA (in vivo; PO, 10 mg/kg): 45.3%; Tmax (in vivo; PO, 10 mg/kg): 2.2 h; Cmax (in vivo; PO, 10 mg/kg): 380 nM"
CC(C)N1CCC(c2ccc(/C(=C(/CCCO)c3ccccc3)c3ccc(O)cc3)cc2)C1 (racemic) [Compound 22s],–,34.9,35.4,75.6,21.7,–,–,–,–,–,"AUCall (in vivo; IV, 1 mg/kg): 0.44 μMh; Vss (in vivo; IV, 1 mg/kg): 13.2 L/kg; t1/2 (in vivo; IV, 1 mg/kg): 2.2 h; AUCINF (in vivo; PO, 10 mg/kg): 0.11 μMh; AUCall (in vivo; PO, 10 mg/kg): 0.09 μMh; BA (in vivo; PO, 10 mg/kg): 18.5%; Tmax (in vivo; PO, 10 mg/kg): 1.3 h; Cmax (in vivo; PO, 10 mg/kg): 20 nM"
CN1CCCC1CCOc1ccc(/C(=C(/CCCO)c2ccccc2)c2ccc(Br)cc2)cc1 (centres unmarked) [Compound 13d],–,67.3,–,59.9,–,>100 % of control,97 % of control,–,>100 % of control,–,"Papp at 5 h (in vitro; PAMPA, read-out: Permeability Pampa): 0.14 ×10⁻⁶ cm/s"
CC(C)N1CCN(c2ccc(/C(=C(/CCCO)c3ccccc3)c3ccc(N)cc3)cc2)CC1 [Compound 26b],–,49.1,40.6,31.4,14.3,99.2 % of control,92.5 % of control,98.7 % of control,81.9 % of control,60.9 % of control,–
OCCC/C(=C(\c1ccc(Br)cc1)c1ccc(C2CNC2)cc1)c1ccccc1 [Compound 20f],0.14 10^−6 cm/s,83.9,–,99.5,–,–,–,–,–,–,–
CC(C)N1CCC(c2ccc(/C(=C(/CCCO)c3ccccc3)c3cccc(O)c3)cc2)CC1 [Compound 22h],–,46.9,22.4,43.8,16.2,>100 % of control,97.9 % of control,>100 % of control,69.1 % of control,72.2 % of control,–
CN1CCC(c2ccc(/C(=C(/CCCO)c3ccccc3)c3cccc(O)c3)cc2)CC1 [Compound 22ac],–,–,–,–,–,>100 % of control,>100 % of control,>100 % of control,86.2 % of control,85 % of control,–
"CC(C)(C)OC(=O)N1CC(c2ccc(/C(=C(/CCCO)c3ccccc3)c3ccc(O)cc3)cc2)C1 [Compound 18t, tert-butyl (E)-3-(4-(5-hydroxy-1-(4-hydroxyphenyl)-2-phenylpent-1-en-1-yl)phenyl)azetidine-1-carboxylate]",–,66.9,–,80.5,–,100 % of control,83 % of control,93 % of control,98 % of control,–,"Functional Assay at 10 μM (% of control), Cpds (ERRγ; 10 μM, 24 hours, AD293): 11.1 % of control; Functional Assay, Cpds/Ref 5182 (ERRγ; [5]): 1.11"
"OCCC/C(=C(\c1ccc(Br)cc1)c1ccc(N2CCNCC2)cc1)c1ccccc1 [Compound 20a, (E)-5-(4-bromophenyl)-4-phenyl-5-(4-(piperazin-1-yl)phenyl)pent-4-en-1-ol]",–,65.1,–,84.7,–,85 % of control,76 % of control,–,–,55 % of control,"Functional Assay at 10 μM (% of control), Cpds (ERRγ; 10 μM, 24 hours, AD293): 3.15 % of control"
